Results reported in patent publication US9115137B2, “2,3,4,5-tetrahydro-1H-pyrido[4,3-B]indole compounds and methods of use thereof” (priority 2008, dated 2015).

What was measured:
[1] = target: T1, human recombinant histamine H2 receptor (Homo sapiens, UniProt P25021); assay: Histamine H2 radioligand binding ([125I]aminopotentidine); conditions: compound at 1 μM; CHO K1 cells; read-out: Histamine Binding (1 μM) H2, percent inhibition of specific binding
T1 construct: expressed in transfected cells; host or cells: CHO-K1 cells
Method: To evaluate in radioligand binding assays the activity of compounds of the invention, human recombinant histamine H2 receptor expressed in Chinese hamster ovary (CHO) K1 cells (Ruat, M., Proc. Natl. Acad. Sci. USA. 87(5):1658, 1990) in a 50 mM Phosphate buffer, pH 7.4 was used. Compounds of the invention were incubated with 0.1 nM [^125I]aminopotentidine for 120 minutes at 25° C. Non-specific binding was estimated in the presence of 3 μM Tiotidine. Receptor proteins were filtered and washed, the filters were then counted to determine [^125I]Aminopotentidine specifically bound. Compounds were screened at 1 μM, using 1% DMSO as vehicle. Biochemical assay results are presented as the percent inhibition of specific binding in Table 5.

[2] = target: T2, human recombinant adrenergic α1D receptor (Homo sapiens, UniProt P25100); assay: Adrenergic α1D radioligand binding ([3H]Prozosin); conditions: compound at 1 μM; HEK-293 cells; read-out: Adrenergic (1 μM) α1D, percent inhibition of specific binding
T2 construct: expressed in transfected cells; host or cells: HEK-293 cells
T2 sequence (P25100 1-572): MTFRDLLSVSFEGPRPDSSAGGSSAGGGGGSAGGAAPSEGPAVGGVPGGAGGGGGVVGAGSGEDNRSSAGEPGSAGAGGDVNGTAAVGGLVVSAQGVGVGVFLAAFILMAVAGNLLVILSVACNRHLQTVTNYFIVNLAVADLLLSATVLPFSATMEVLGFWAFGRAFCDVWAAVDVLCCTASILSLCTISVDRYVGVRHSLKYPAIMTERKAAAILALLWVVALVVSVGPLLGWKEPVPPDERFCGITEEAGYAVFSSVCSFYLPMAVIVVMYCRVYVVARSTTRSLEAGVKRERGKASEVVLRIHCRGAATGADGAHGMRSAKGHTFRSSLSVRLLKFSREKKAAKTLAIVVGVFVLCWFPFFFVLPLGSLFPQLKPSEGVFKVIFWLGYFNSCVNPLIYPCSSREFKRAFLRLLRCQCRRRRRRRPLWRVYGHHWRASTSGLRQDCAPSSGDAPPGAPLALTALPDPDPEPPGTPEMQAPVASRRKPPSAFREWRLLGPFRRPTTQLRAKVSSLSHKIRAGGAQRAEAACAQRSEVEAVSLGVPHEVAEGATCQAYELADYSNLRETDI
Method: To evaluate in radioligand binding assays the activity of compounds of the invention, human recombinant adrenergic α1D receptor expressed in human embryonic kidney (HEK-293) cells (Kenny, B. A. et al. Br. J. Pharmacol. 115(6):981, 1995) in a 50 mM Tris-HCl buffer, pH 7.4, was used. Compounds of invention were incubated with 0.6 nM [^3H]Prozosin for 60 minutes at 25° C. Non-specific binding was estimated in the presence of 10 μM phentolamine. Receptor proteins were filtered and washed, the filters were then counted to determine [^3H]Prozosin specifically bound. Compounds were screened at 1 μM or lower, using 1% DMSO as vehicle. Biochemical assay results are presented as the percent inhibition of specific binding in Table 6.

[3] = target: T3, human recombinant adrenergic α2A receptor (Homo sapiens, UniProt P08913); assay: Adrenergic α2A radioligand binding ([3H]MK-912); conditions: compound at 1 μM; insect Sf9 cells; read-out: Adrenergic (1 μM) α2A, percent inhibition of specific binding
T3 construct: expressed in transfected cells; host or cells: insect Sf9 cells
T3 sequence (P08913 1-465): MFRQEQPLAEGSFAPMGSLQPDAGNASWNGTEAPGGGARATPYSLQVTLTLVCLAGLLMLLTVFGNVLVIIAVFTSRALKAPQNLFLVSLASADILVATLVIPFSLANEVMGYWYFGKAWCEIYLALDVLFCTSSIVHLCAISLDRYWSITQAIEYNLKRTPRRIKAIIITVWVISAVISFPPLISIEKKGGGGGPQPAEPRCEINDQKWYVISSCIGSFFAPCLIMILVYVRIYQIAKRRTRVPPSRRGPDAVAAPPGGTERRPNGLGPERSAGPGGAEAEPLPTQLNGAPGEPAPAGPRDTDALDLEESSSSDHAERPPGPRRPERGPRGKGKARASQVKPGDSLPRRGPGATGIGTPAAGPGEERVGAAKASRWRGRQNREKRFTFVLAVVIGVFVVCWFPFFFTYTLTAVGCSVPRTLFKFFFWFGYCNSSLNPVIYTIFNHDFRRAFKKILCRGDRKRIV
Method: To evaluate in radioligand binding assays the activity of compounds of the invention, human recombinant adrenergic α2A receptor expressed in insect Sf9 cells (Uhlen S et al. J Pharmacol Exp Ther. 271:1558, 1994) in a modified Tris-HCl buffer (50 mM Tris-HCl, pH 7.4, 12.5 mM MgCl2, 2 mM EDTA) was used. Compounds of invention were incubated with 1 nM [^3H]MK-912 for 60 minutes at 25° C. MK912 is (2S-trans)-1,3,4,5′,6,6′,7,12b-octahydro-1′,3′-dimethyl-spiro[2H-benzofuro[2,3-a]quinolizine-2,4′(1′H)-pyrimidin]-2′(3′H)-one hydrochloride Non-specific binding was estimated in the presence of 10 μM WB-4101 (2-(2,6-Dimethoxyphenoxyethyl)aminomethyl-1,4-benzodioxane hydrochloride). Receptor proteins were filtered and washed, the filters were then counted to determine [^3H]MK-912 specifically bound. Compounds were screened at 1 μM or lower, using 1% DMSO as vehicle. Biochemical assay results are presented as the percent inhibition of specific binding in Table 6.

[4] = target: T4, human recombinant serotonin (5-Hydroxytryptamine) 5-HT6 receptor (Homo sapiens, UniProt P50406); assay: Serotonin 5-HT6 radioligand binding ([3H]LSD); conditions: compound at 1 μM; HeLa cells; read-out: Serotonin (1 μM) 5-HT6, percent inhibition of specific binding
T4 construct: expressed in transfected cells; host or cells: human HeLa cells
Method: To evaluate in radioligand binding assays the activity of compounds of the invention, human recombinant serotonin (5-Hydroxytryptamine) 5-HT6 receptor expressed in human HeLa cells (Monsma, F. J. Jr. et al., Mol. Pharmacol. 43:320, 1993) in a modified Tris-HCl buffer (50 mM Tris-HCl, pH 7.4, 150 mM NaCl, 2 mM Ascorbic Acid, 0.001% BSA) was used. Compounds of the invention were incubated with 1.5 nM [3H]Lysergic acid diethylamide (LSD) for 120 minutes at 37° C. Non-specific binding was estimated in the presence of 5 μM Serotonin (5-HT). Receptor proteins were filtered and washed, the filters were then counted to determine [3H]LSD specifically bound. Compounds were screened at 1 μM or lower, using 1% DMSO as vehicle. Biochemical assay results are presented as the percent inhibition of specific binding in Table 7.

T1 sequence (P25021 whole entry): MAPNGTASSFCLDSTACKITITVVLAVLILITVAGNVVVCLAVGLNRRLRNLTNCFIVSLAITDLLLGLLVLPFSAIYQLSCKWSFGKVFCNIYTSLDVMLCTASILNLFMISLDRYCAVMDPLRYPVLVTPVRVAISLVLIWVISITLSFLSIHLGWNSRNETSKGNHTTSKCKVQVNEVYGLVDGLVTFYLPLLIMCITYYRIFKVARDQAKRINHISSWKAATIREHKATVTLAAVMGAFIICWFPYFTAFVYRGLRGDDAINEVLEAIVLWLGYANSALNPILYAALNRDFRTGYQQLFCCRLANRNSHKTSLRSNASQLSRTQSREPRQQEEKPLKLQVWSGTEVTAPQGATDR
T4 sequence (P50406 whole entry): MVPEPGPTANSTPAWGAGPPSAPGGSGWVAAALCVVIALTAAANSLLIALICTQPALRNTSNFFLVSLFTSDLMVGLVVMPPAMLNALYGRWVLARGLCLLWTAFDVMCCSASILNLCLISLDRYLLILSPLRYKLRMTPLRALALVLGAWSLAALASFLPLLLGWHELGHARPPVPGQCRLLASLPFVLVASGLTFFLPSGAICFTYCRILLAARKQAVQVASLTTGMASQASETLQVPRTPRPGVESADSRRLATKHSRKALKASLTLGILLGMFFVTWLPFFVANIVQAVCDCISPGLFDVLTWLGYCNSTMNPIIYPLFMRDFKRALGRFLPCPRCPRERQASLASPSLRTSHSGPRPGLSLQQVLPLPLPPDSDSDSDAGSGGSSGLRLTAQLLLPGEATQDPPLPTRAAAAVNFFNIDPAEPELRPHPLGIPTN

CCNC(=O)Cn1c2c(c3cc(C)ccc31)CN(C)CC2 [Compound 22, N-ethyl-2-(1,2,3,4-tetrahydro-2,8-dimethylpyrido[4,3-b]indol-5-yl)acetamide]
inhibition at 1 µM [1]: 11%
inhibition at 1 µM [2]: 23%
inhibition at 1 µM [3]: 40%
inhibition at 1 µM [4]: 27%

Cc1ccc2c(c1)c1c(n2CC(=O)NC(C)C)CCN(C)C1 [Compound 23, 2-(1,2,3,4-tetrahydro-2,8-dimethylpyrido[4,3-b]indol-5-yl)-N-isopropylacetamide]
inhibition at 1 µM [1]: 1%
inhibition at 1 µM [2]: 15%
inhibition at 1 µM [3]: 12%
inhibition at 1 µM [4]: 3%

Cc1ccc2c(c1)c1c(n2CC(=O)NC(C)(C)C)CCN(C)C1 [Compound 24, N-tert-butyl-2-(1,2,3,4-tetrahydro-2,8-dimethylpyrido[4,3-b]indol-5-yl)acetamide]
inhibition at 1 µM [1]: 5%
inhibition at 1 µM [2]: -4%
inhibition at 1 µM [3]: 10%
inhibition at 1 µM [4]: 6%

Cc1ccc2c(c1)c1c(n2CC(=O)NCc2ccccc2)CCN(C)C1 [Compound 25, N-benzyl-2-(1,2,3,4-tetrahydro-2,8-dimethylpyrido[4,3-b]indol-5-yl)acetamide]
inhibition at 1 µM [1]: 9%
inhibition at 1 µM [2]: 22%
inhibition at 1 µM [3]: 2%
inhibition at 1 µM [4]: 58%

Cc1ccc2c(c1)c1c(n2CC(=O)NCC2CCCCC2)CCN(C)C1 [Compound 26, N-(cyclohexylmethyl)-2-(1,2,3,4-tetrahydro-2,8-dimethylpyrido[4,3-b]indol-5-yl)acetamide]
inhibition at 1 µM [1]: 22%
inhibition at 1 µM [2]: 32%
inhibition at 1 µM [3]: 22%
inhibition at 1 µM [4]: 34%

CN1CCc2c(c3cc(Cl)ccc3n2CC(=O)NC2CCCC2)C1 [Compound 27, 2-(8-chloro-1,2,3,4-tetrahydro-2-methylpyrido[4,3-b]indol-5-yl)-N-cyclopentylacetamide]
inhibition at 1 µM [1]: 5%
inhibition at 1 µM [2]: 18%
inhibition at 1 µM [3]: 12%
inhibition at 1 µM [4]: 13%

Cc1ccc2c(c1)c1c(n2CCC(=O)NC(C)(C)C)CCN(C)C1 [Compound 28]
inhibition at 1 µM [1]: 18%
inhibition at 1 µM [2]: 58%
inhibition at 1 µM [3]: 44%
inhibition at 1 µM [4]: 47%

Cc1ccc2c(c1)c1c(n2CCC(=O)Nc2ccccc2)CCN(C)C1 [Compound 29]
inhibition at 1 µM [1]: 34%
inhibition at 1 µM [2]: 74%
inhibition at 1 µM [3]: 78%
inhibition at 1 µM [4]: 43%

Cc1ccc2c(c1)c1c(n2CCC(=O)NCC2CCCCC2)CCN(C)C1 [Compound 30, N-(cyclohexylmethyl)-3-(1,2,3,4-tetrahydro-2,8-dimethylpyrido[4,3-b]indol-5-yl)propanamide]
inhibition at 1 µM [1]: 41%
inhibition at 1 µM [2]: 73%
inhibition at 1 µM [3]: 74%
inhibition at 1 µM [4]: 18%

CN1CCc2c(c3cc(Cl)ccc3n2CCC(=O)NC2CCCC2)C1 [Compound 31, 3-(8-chloro-1,2,3,4-tetrahydro-2-methylpyrido[4,3-b]indol-5-yl)-N-cyclopentylpropanamide]
inhibition at 1 µM [1]: 20%
inhibition at 1 µM [2]: 61%
inhibition at 1 µM [3]: 37%
inhibition at 1 µM [4]: 34%

CN1CCc2c(c3cc(Cl)ccc3n2CC(N)=O)C1 [Compound 45, 2-(8-chloro-1,2,3,4-tetrahydro-2-methylpyrido[4,3-b]indol-5-yl)acetamide]
inhibition at 1 µM [1]: 3%
inhibition at 1 µM [2]: 12%
inhibition at 1 µM [3]: 16%
inhibition at 1 µM [4]: 5%

Cc1ccc2c(c1)c1c(n2CCC(N)=O)CCN(C)C1 [Compound 46, 3-(1,2,3,4-tetrahydro-2,8-dimethylpyrido[4,3-b]indol-5-yl)propanamide]
inhibition at 1 µM [1]: -5%
inhibition at 1 µM [2]: 7%
inhibition at 1 µM [3]: 44%
inhibition at 1 µM [4]: 11%

Cc1ccc2c(c1)c1c(n2CCC(=O)Nc2ccc(F)cc2)CCN(C)C1 [Compound 47, N-(4-fluorophenyl)-3-(1,2,3,4-tetrahydro-2,8-dimethylpyrido[4,3-b]indol-5-yl)propanamide]
inhibition at 1 µM [1]: 53%
inhibition at 1 µM [2]: 80%
inhibition at 1 µM [3]: 73%
inhibition at 1 µM [4]: 63%

CN1CCc2c(c3cc(Cl)ccc3n2CC(=O)N(C)C)C1 [Compound 48, 2-(8-chloro-1,2,3,4-tetrahydro-2-methylpyrido[4,3-b]indol-5-yl)-N,N-dimethylacetamide]
inhibition at 1 µM [1]: 4%
inhibition at 1 µM [2]: 10%
inhibition at 1 µM [3]: 20%
inhibition at 1 µM [4]: 12%

CN1CCc2c(c3cc(Cl)ccc3n2CCC(=O)N(C)C)C1 [Compound 49, 3-(8-chloro-1,2,3,4-tetrahydro-2-methylpyrido[4,3-b]indol-5-yl)-N,N-dimethylpropanamide]
inhibition at 1 µM [1]: 5%
inhibition at 1 µM [2]: 18%
inhibition at 1 µM [3]: 83%
inhibition at 1 µM [4]: 24%

Cc1ccc2c(c1)c1c(n2CCNC(=O)c2ccncc2)CCN(C)C1 [Compound 50, N-(2-(1,2,3,4-tetrahydro-2,8-dimethylpyrido[4,3-b]indol-5-yl)ethyl)isonicotinamide]
inhibition at 1 µM [1]: 9%
inhibition at 1 µM [2]: 37%
inhibition at 1 µM [3]: 38%
inhibition at 1 µM [4]: -1%

Cc1ccc2c(c1)c1c(n2CC(=O)Nc2ccc(F)cc2)CCN(C)C1 [Compound 51, N-(4-fluorophenyl)-2-(1,2,3,4-tetrahydro-2,8-dimethylpyrido[4,3-b]indol-5-yl)acetamide]
inhibition at 1 µM [1]: 8%
inhibition at 1 µM [2]: 29%
inhibition at 1 µM [3]: 22%
inhibition at 1 µM [4]: 30%
